Each cell line was assayed with CN1CCN(CC1)C2=CC(=C(C=C2)NC3=NC=C4C(=N3)N(C5=CC=CC=C5C(=O)N4C)C)OC [XMD8-85] + CC1(C)CCC(c2ccc(Cl)cc2)=C(CN2CCN(c3ccc(C(=O)NS(=O)(=O)c4ccc(N[C@H](CCN5CCOCC5)CSc5ccccc5)c(S(=O)(=O)C(F)(F)F)c4)cc3)CC2)C1 [Navitoclax] (partner 0.5 µM) (assay: relative viability (nuclei count vs DMSO), 5 days (fraction); higher = more cells survive). Details: first compound 0.08 µM.
Method in brief: (§1)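 After 5 days of treatment, lung cancer cells in 1536-well plates were fixed and stained in a single step (final 0.05% Triton X-100, 1% formaldehyde, 1 ug/ml Hoechst) and their nuclei counted on 4× images. Treatment had been applied by pin tool the day after seeding as one drug alone or as a fixed anchor-drug dose with five library-drug doses (not always all listed) in √10 steps. Relative viability is the nuclei count of treated wells divided by that of vehicle wells, and values are medians of duplicate plates.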
NCI-H3122 was tested, and the relative viability was 1.08.
With PC-3 [JPC-3] the relative viability was 0.796.
For PC-14, the relative viability was 1.01.
RERF-LC-KJ gave a relative viability of 0.712.
In the case of SK-LU-1, the relative viability is reported as 0.839.
In the case of SK-MES-1, the relative viability is reported as 1.22.
SW 1573 was tested, and the relative viability was 1.13.
In the case of UMC-11, the relative viability is reported as 0.356.

Same assay, conditions: first compound 0.253 µM
NCI-H3122 was tested, and the relative viability was 1.01.
PC-3 [JPC-3] gave a relative viability of 0.785.
For PC-14, the relative viability was 1.02.
RERF-LC-KJ gave a relative viability of 0.96.
In the case of SK-LU-1, the relative viability is reported as 0.795.
Work on SK-MES-1 yielded a relative viability of 1.33.
SW 1573 showed a relative viability of 1.02.
Work on UMC-11 yielded a relative viability of 0.312.

Same assay, conditions: first compound 0.8 µM
NCI-H3122 was tested, and the relative viability was 1.09.
Work on PC-3 [JPC-3] yielded a relative viability of 0.861.
With PC-14 the relative viability was 1.03.
Cell Line RERF-LC-KJ has a relative viability of 0.982.
SK-LU-1 was tested, and the relative viability was 1.1.
For SK-MES-1, the relative viability was 1.06.
SW 1573 showed a relative viability of 0.896.
Cell Line UMC-11 has a relative viability of 0.322.

Same assay, conditions: first compound 2.53 µM
With NCI-H3122 the relative viability was 1.06.
Work on PC-3 [JPC-3] yielded a relative viability of 0.966.
With PC-14 the relative viability was 0.959.
RERF-LC-KJ was tested, and the relative viability was 1.03.
For SK-LU-1, the relative viability was 0.888.
In the case of SK-MES-1, the relative viability is reported as 1.19.
In the case of SW 1573, the relative viability is reported as 0.801.
Cell Line UMC-11 has a relative viability of 0.301.

Same assay, conditions: first compound 8 µM
NCI-H3122 showed a relative viability of 1.1.
Work on PC-3 [JPC-3] yielded a relative viability of 0.769.
For PC-14, the relative viability was 0.628.
RERF-LC-KJ showed a relative viability of 0.565.
For SK-LU-1, the relative viability was 0.293.
SK-MES-1 showed a relative viability of 0.866.
Work on SW 1573 yielded a relative viability of 0.545.
UMC-11 was tested, and the relative viability was 0.234.

The cell lines below were run with O=C(O)C(Cc1ccccc1[N+](=O)[O-])=NNc1nc(-c2ccc(Cl)c(Cl)c2)cs1 (mixture of isomers) [4EGI-1] + CC1(C)CCC(c2ccc(Cl)cc2)=C(CN2CCN(c3ccc(C(=O)NS(=O)(=O)c4ccc(N[C@H](CCN5CCOCC5)CSc5ccccc5)c(S(=O)(=O)C(F)(F)F)c4)cc3)CC2)C1 [Navitoclax] (partner 0.5 µM) in the same assay as above. Details: first compound 0.5 µM.
Method in brief: as §1
In the case of NCI-H3122, the relative viability is reported as 1.01.
PC-3 [JPC-3] gave a relative viability of 0.82.
Work on PC-14 yielded a relative viability of 1.09.
For RERF-LC-KJ, the relative viability was 0.902.
SK-LU-1 gave a relative viability of 0.792.
SK-MES-1 gave a relative viability of 1.18.
Work on SW 1573 yielded a relative viability of 1.26.
Work on UMC-11 yielded a relative viability of 0.392.

Same assay, conditions: first compound 1.581 µM
For NCI-H3122, the relative viability was 0.975.
With PC-3 [JPC-3] the relative viability was 0.753.
In the case of SK-LU-1, the relative viability is reported as 1.09.
With SK-MES-1 the relative viability was 1.27.
For SW 1573, the relative viability was 0.927.
UMC-11 gave a relative viability of 0.345.

Same assay, conditions: first compound 5 µM
Work on NCI-H3122 yielded a relative viability of 1.02.
Work on PC-3 [JPC-3] yielded a relative viability of 0.765.
PC-14 was tested, and the relative viability was 0.985.
For RERF-LC-KJ, the relative viability was 0.858.
SK-LU-1 showed a relative viability of 0.974.
With SK-MES-1 the relative viability was 1.19.
Cell Line SW 1573 has a relative viability of 0.947.
With UMC-11 the relative viability was 0.367.

Same assay, conditions: first compound 15.81 µM
Work on NCI-H3122 yielded a relative viability of 1.06.
With RERF-LC-KJ the relative viability was 0.632.
For SK-LU-1, the relative viability was 0.548.
For SK-MES-1, the relative viability was 1.01.
With SW 1573 the relative viability was 0.843.
UMC-11 showed a relative viability of 0.301.

Same assay, conditions: first compound 50 µM
With NCI-H3122 the relative viability was 1.01.
Work on PC-3 [JPC-3] yielded a relative viability of 0.612.
With PC-14 the relative viability was 0.981.
Work on RERF-LC-KJ yielded a relative viability of 0.706.
In the case of SK-LU-1, the relative viability is reported as 0.161.
In the case of SK-MES-1, the relative viability is reported as 0.949.
SW 1573 showed a relative viability of 0.674.
Work on UMC-11 yielded a relative viability of 0.216.

The cell lines below were run with O=C(O)C(Cc1ccccc1[N+](=O)[O-])=NNc1nc(-c2ccc(Cl)c(Cl)c2)cs1 (mixture of isomers) [4EGI-1] + COc1cc2c(Oc3ccc(NC(=O)C4(C(=O)Nc5ccc(F)cc5)CC4)cc3F)ccnc2cc1OCCCN1CCOCC1 [Foretinib] (partner 0.25 µM) in the same assay as above. Details: first compound 0.5 µM.
Method in brief: as §1
Work on NCI-H3122 yielded a relative viability of 0.897.
PC-3 [JPC-3] gave a relative viability of 1.09.
PC-14 was tested, and the relative viability was 1.01.
RERF-LC-KJ showed a relative viability of 0.883.
With SK-LU-1 the relative viability was 0.956.
SK-MES-1 gave a relative viability of 1.04.
For SW 1573, the relative viability was 1.13.
Cell Line UMC-11 has a relative viability of 1.1.

Same assay, conditions: first compound 1.581 µM
Cell Line NCI-H3122 has a relative viability of 0.897.
In the case of PC-3 [JPC-3], the relative viability is reported as 0.984.
PC-14 showed a relative viability of 0.799.
RERF-LC-KJ gave a relative viability of 0.77.
In the case of SK-LU-1, the relative viability is reported as 0.829.
SK-MES-1 was tested, and the relative viability was 0.955.
SW 1573 was tested, and the relative viability was 0.954.
UMC-11 gave a relative viability of 1.09.

Same assay, conditions: first compound 5 µM
NCI-H3122 showed a relative viability of 0.927.
With PC-3 [JPC-3] the relative viability was 0.967.
PC-14 was tested, and the relative viability was 1.09.
Work on RERF-LC-KJ yielded a relative viability of 0.857.
SK-LU-1 was tested, and the relative viability was 0.841.
With SK-MES-1 the relative viability was 1.03.
Work on SW 1573 yielded a relative viability of 1.13.
UMC-11 gave a relative viability of 1.12.

Same assay, conditions: first compound 15.81 µM
NCI-H3122 showed a relative viability of 0.986.
Cell Line RERF-LC-KJ has a relative viability of 0.695.
For SK-LU-1, the relative viability was 0.746.
SK-MES-1 gave a relative viability of 0.521.
SW 1573 gave a relative viability of 0.878.
UMC-11 showed a relative viability of 1.09.

Same assay, conditions: first compound 50 µM
Work on NCI-H3122 yielded a relative viability of 0.684.
PC-3 [JPC-3] was tested, and the relative viability was 0.463.
Cell Line PC-14 has a relative viability of 0.879.
For RERF-LC-KJ, the relative viability was 0.734.
In the case of SK-LU-1, the relative viability is reported as 0.284.
SK-MES-1 showed a relative viability of 0.824.
In the case of SW 1573, the relative viability is reported as 0.52.
UMC-11 gave a relative viability of 0.39.

Each cell line was assayed with O=C(O)C(Cc1ccccc1[N+](=O)[O-])=NNc1nc(-c2ccc(Cl)c(Cl)c2)cs1 (mixture of isomers) [4EGI-1] + Nc1nc2[nH]cc(CCc3ccc(C(=O)N[C@@H](CCC(=O)O)C(=O)O)cc3)c2c(=O)[nH]1 [Pemetrexed] (partner 0.2 µM) in the same assay as above. Details: first compound 0.5 µM.
Method in brief: as §1
NCI-H3122 was tested, and the relative viability was 0.196.
Cell Line PC-3 [JPC-3] has a relative viability of 1.09.
With PC-14 the relative viability was 0.135.
RERF-LC-KJ showed a relative viability of 0.51.
With SK-LU-1 the relative viability was 0.932.
Work on SK-MES-1 yielded a relative viability of 0.979.
Cell Line SW 1573 has a relative viability of 0.963.
UMC-11 showed a relative viability of 0.841.

Same assay, conditions: first compound 1.581 µM
In the case of NCI-H3122, the relative viability is reported as 0.192.
RERF-LC-KJ was tested, and the relative viability was 0.351.
SK-LU-1 was tested, and the relative viability was 1.02.
SK-MES-1 showed a relative viability of 0.713.
With SW 1573 the relative viability was 0.742.
For UMC-11, the relative viability was 0.792.

Same assay, conditions: first compound 5 µM
NCI-H3122 showed a relative viability of 0.189.
PC-3 [JPC-3] showed a relative viability of 1.21.
For PC-14, the relative viability was 0.159.
Cell Line RERF-LC-KJ has a relative viability of 0.444.
In the case of SK-LU-1, the relative viability is reported as 0.992.
With SK-MES-1 the relative viability was 0.968.
Work on SW 1573 yielded a relative viability of 0.794.
Work on UMC-11 yielded a relative viability of 0.863.

Same assay, conditions: first compound 15.81 µM
Cell Line NCI-H3122 has a relative viability of 0.224.
PC-3 [JPC-3] was tested, and the relative viability was 0.491.
Work on PC-14 yielded a relative viability of 0.185.
With RERF-LC-KJ the relative viability was 0.457.
Work on SK-LU-1 yielded a relative viability of 1.06.
Work on SK-MES-1 yielded a relative viability of 0.751.
Work on SW 1573 yielded a relative viability of 0.329.
UMC-11 was tested, and the relative viability was 0.805.

Same assay, conditions: first compound 50 µM
NCI-H3122 was tested, and the relative viability was 0.175.
Work on PC-3 [JPC-3] yielded a relative viability of 0.333.
PC-14 was tested, and the relative viability was 0.0861.
Work on RERF-LC-KJ yielded a relative viability of 0.431.
In the case of SK-LU-1, the relative viability is reported as 0.319.
Cell Line SK-MES-1 has a relative viability of 0.24.
In the case of SW 1573, the relative viability is reported as 0.126.
UMC-11 showed a relative viability of 0.52.

— the supplement of paper PMC10307832
